The term pIC50 denotes −log10 of the IC50, conventionally taken in molar units.

23 compounds from patent US10189841B2, “Purinones as ubiquitin-specific protease 1 inhibitors” (Forma Therapeutics, Inc., priority 2015, dated 2019) can be followed below.

pIC50: −log10 of the molar value. Bounds are passed on as bounds.

Sequence of USP1 (construct USP1 (I-785, GG670, 671AA)/UAF1 (I-677)-Flag) (O94782 whole entry G670A/G671A): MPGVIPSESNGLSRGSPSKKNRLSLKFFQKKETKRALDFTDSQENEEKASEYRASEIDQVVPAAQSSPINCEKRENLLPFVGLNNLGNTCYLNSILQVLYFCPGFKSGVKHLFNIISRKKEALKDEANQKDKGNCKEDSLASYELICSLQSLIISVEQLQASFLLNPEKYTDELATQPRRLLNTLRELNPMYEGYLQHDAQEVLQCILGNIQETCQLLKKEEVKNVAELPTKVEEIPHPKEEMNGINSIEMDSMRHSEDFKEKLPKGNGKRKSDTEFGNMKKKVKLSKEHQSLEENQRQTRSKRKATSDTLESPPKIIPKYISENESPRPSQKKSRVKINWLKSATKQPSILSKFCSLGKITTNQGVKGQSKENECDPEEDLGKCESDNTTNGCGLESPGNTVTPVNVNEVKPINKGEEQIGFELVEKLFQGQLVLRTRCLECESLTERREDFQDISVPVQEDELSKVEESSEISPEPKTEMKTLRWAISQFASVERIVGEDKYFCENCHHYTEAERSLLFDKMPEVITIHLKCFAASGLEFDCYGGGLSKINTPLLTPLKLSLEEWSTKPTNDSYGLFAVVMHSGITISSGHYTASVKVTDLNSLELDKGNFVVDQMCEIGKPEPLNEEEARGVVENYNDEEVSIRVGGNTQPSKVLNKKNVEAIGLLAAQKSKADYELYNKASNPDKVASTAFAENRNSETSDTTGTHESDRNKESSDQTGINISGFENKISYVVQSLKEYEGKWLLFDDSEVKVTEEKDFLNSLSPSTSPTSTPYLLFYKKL
Sequence of USP1 (construct USP1 (I-785, GG670, 671AA)/UAF1 (I-677)-Flag) (Q8TAF3 whole entry partner): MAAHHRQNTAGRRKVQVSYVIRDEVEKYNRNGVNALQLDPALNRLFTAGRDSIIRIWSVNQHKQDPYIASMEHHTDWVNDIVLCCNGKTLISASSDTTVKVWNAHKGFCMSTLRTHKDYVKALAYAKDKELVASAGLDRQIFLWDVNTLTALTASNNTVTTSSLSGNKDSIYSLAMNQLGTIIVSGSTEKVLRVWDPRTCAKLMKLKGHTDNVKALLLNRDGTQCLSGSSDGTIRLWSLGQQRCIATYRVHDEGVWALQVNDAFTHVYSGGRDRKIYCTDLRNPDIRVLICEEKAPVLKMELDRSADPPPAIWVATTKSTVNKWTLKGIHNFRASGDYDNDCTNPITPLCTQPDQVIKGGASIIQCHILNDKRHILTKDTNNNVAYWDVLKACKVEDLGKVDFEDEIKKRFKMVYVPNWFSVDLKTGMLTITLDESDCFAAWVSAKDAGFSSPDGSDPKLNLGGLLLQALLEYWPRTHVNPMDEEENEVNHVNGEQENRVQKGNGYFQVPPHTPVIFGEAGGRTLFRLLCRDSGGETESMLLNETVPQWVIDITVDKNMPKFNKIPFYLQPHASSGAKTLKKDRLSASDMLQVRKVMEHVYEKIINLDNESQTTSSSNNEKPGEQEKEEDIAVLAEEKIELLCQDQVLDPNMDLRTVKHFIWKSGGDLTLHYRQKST

This assay deals with USP1 (construct USP1 (I-785, GG670, 671AA)/UAF1 (I-677)-Flag) (Homo sapiens (Human), UniProt O94782, G670A/G671A). Briefly: Ubiquitin-Rhodamine 110 assay for USP1 activity. Conditions: USP1/UAF1 25 pM, Ub-Rh110 25 nM, 30 min preincubation. In kind it is biochemical. The method, boiled down:
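Ub-Rh110 (25 nM, ≪Km) cleavage read at ex 485/em 535 in Tris pH 8.0, CaCl2, GSH, Prionex, Triton X-100. The screen used 10 µM compound, 100 pM USP1/UAF1 and 45 min at RT.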
`CC(C)c1ccccc1-c1ncc2c(n1)n(Cc1ccc(-c3ncc[nH]3)cc1)c(=O)n2C` [Compound I-529, 9-(4-(1H-Imidazol-2-yl)benzyl)-2-(2-isopropylphenyl)-7-methyl-7,9-dihydro-8H-purin-8-one] had a pIC50 of 6.70 to 7.30. The value for `CCOCCOc1ccc(Cn2c(=O)n(C)c3cnc(-c4ccccc4C(C)C)nc32)cc1` [Compound I-236, 9-(4-(2-ethoxyethoxy)benzyl)-2-(2-isopropylphenyl)-7-methyl-7,9-dihydro-8H-purin-8-one] was over 7.30; that for `CC(C)NC(=O)N1CCC(Cn2c(=O)n(C)c3cnc(-c4ccccc4C(C)C)nc32)CC1` [Compound I-478, N-isopropyl-4-((2-(2-isopropylphenyl)-7-methyl-8-oxo-7,8-dihydro-9H-purin-9-yl)methyl)piperidine-1-carboxamide] was under 5.70. Compound `[2H]C([2H])([2H])n1cc(C(F)(F)F)nc1-c1ccc(Cn2c(=O)n(C)c3cnc(-c4cccnc4C(C)C)nc32)cc1` [Compound I-131, 2-(2-isopropylpyridin-3-yl)-7-methyl-9-(4-(1-(methyl-d3)-4-(trifluoromethyl)-1H-imidazol-2-yl)benzyl)-7,9-dihydro-8H-purin-8-one] gave a pIC50 of over 7.30. `Cc1cc(Cl)nn1-c1ccc(Cn2c(=O)[nH]c3cnc(-c4ccccc4C(C)C)nc32)cc1` [Compound I-210, 9-(4-(3-chloro-5-methyl-1H-pyrazol-1-yl)benzyl)-2-(2-isopropylphenyl)-7,9-dihydro-8H-purin-8-one]: the pIC50 is over 7.30.

With `CC(C)c1ccccc1-c1ncc2[nH]c(=O)n(Cc3ccc(CN4CCOCC4)cc3)c2n1` [Compound I-153, 2-(2-isopropylphenyl)-9-(4-(morpholinomethyl)benzyl)-7,9-dihydro-8H-purin-8-one], the pIC50 is under 5.70. With `COc1cccc(-c2ncc3[nH]c(=O)n(Cc4ccc(-n5cccn5)cc4)c3n2)c1C(C)C` [Compound I-92, 9-(4-(1H-pyrazol-1-yl)benzyl)-2-(2-isopropyl-3-methoxyphenyl)-7,9-dihydro-8H-purin-8-one], the pIC50 was 5.70 to 6.70. The value for `CC(C)c1ccccc1-c1ncc2[nH]c(=O)n(Cc3ccc(C(=O)N(C)C4CCOC4)cc3)c2n1` (centres unmarked) [Compound I-402, 4-((2-(2-isopropylphenyl)-8-oxo-7,8-dihydro-9H-purin-9-yl)methyl)-N-methyl-N-(tetrahydrofuran-3-yl)benzamide] was 5.70 to 6.70; that for `Cn1cc(C(F)(F)F)nc1-c1ccc(Cn2c(=O)n(C)c3cnc(-c4cccnc4C(F)F)nc32)cc1` [Compound I-72, 2-(2-(difluoromethyl)pyridin-3-yl)-7-methyl-9-(4-(1-methyl-4-(trifluoromethyl)-1H-imidazol-2-yl)benzyl)-7,9-dihydro-8H-purin-8-one] was 5.70 to 6.70; that for `Cn1cc(C(F)(F)F)nc1-c1ccc(Cn2c(=O)[nH]c3cnc(-c4cccnc4OCC4CCOC4)nc32)cc1` (centres unmarked) [Compound I-425, 9-(4-(1-methyl-4-(trifluoromethyl)-1H-imidazol-2-yl)benzyl)-2-(2-((tetrahydrofuran-3-yl)methoxy)pyridin-3-yl)-7,9-dihydro-8H-purin-8-one] was over 7.30. The value for `CCc1ncccc1-c1ncc2c(n1)n(Cc1ccc(-c3nc(C(F)(F)F)cn3C)cc1)c(=O)n2C` [Compound I-61, 2-(2-ethylpyridin-3-yl)-7-methyl-9-(4-(1-methyl-4-(trifluoromethyl)-1H-imidazol-2-yl)benzyl)-7,9-dihydro-8H-purin-8-one] was 6.70 to 7.30. With `COc1ncccc1-c1ncc2[nH]c(=O)n(Cc3ccc(-c4nc(C(F)(F)F)cn4C)cc3)c2n1` [Compound I-412, 2-(2-methoxypyridin-3-yl)-9-(4-(1-methyl-4-(trifluoromethyl)-1H-imidazol-2-yl)benzyl)-7,9-dihydro-8H-purin-8-one], the pIC50 is over 7.30. Compound `CC(C)c1ccccc1-c1ncc2c(n1)n(Cc1ccc(NS(=O)(=O)c3nccn3C)cc1)c(=O)n2C` [Compound I-454, N-(4-((2-(2-isopropylphenyl)-7-methyl-8-oxo-7,8-dihydro-9H-purin-9-yl)methyl)phenyl)-1-methyl-1H-imidazole-2-sulfonamide] had a pIC50 of 5.70 to 6.70.

Take `Cn1cc(C(F)(F)F)nc1-c1ccc(Cn2c(=O)[nH]c3cnc(-c4cccnc4N4CCCCC4)nc32)cc1` [Compound I-326, 9-(4-(1-methyl-4-(trifluoromethyl)-1H-imidazol-2-yl)benzyl)-2-(2-(piperidin-1-yl)pyridin-3-yl)-7,9-dihydro-8H-purin-8-one]: the pIC50 was over 7.30. The value for `CC(C)c1ccccc1-c1ncc2[nH]c(=O)n(Cc3ccc(C(=O)N(C)C4CCCCC4)cc3)c2n1` [Compound I-364, N-cyclohexyl-4-((2-(2-isopropylphenyl)-8-oxo-7,8-dihydro-9H-purin-9-yl)methyl)-N-methylbenzamide] was over 7.30.

Compound `Cc1cc(C#N)nn1-c1ccc(Cn2c(=O)[nH]c3cnc(-c4ccccc4C(C)C)nc32)cc1` [Compound I-207, 1-(4-((2-(2-isopropylphenyl)-8-oxo-7,8-dihydro-9H-purin-9-yl)methyl)phenyl)-5-methyl-1H-pyrazole-3-carbonitrile] gave a pIC50 of over 7.30. The value for `Cn1cc(C(F)(F)F)nc1-c1ccc(Cn2c(=O)[nH]c3cnc(-c4ccccc4[S+](C)[O-])nc32)cc1` (centres unmarked) [Compound I-86, 9-(4-(1-methyl-4-(trifluoromethyl)-1H-imidazol-2-yl)benzyl)-2-(2-(methylsulfinyl)phenyl)-7,9-dihydro-8H-purin-8-one] was 5.70 to 6.70. The value for `CC(C)c1ccccc1-c1ncc2[nH]c(=O)n(CC3CN(c4nccc(C(F)(F)F)n4)C3)c2n1` [Compound I-502, 2-(2-Isopropylphenyl)-9-((1-(4-(trifluoromethyl)pyrimidin-2-yl)azetidin-3-yl)methyl)-7,9-dihydro-8H-purin-8-one] was under 5.70; that for `CC(=O)Nc1ccc(Cn2c(=O)[nH]c3cnc(-c4ccccc4C(C)C)nc32)cc1` [Compound I-218, N-(4-((2-(2-isopropylphenyl)-8-oxo-7,8-dihydro-9H-purin-9-yl)methyl)phenyl)acetamide] was 5.70 to 6.70. The value for `CC(C)c1ncccc1-c1ncc2[nH]c(=O)n(Cc3ccc(-c4nc(C(F)(F)F)cn4C4CC4)cc3)c2n1` [Compound I-76, 9-(4-(1-cyclopropyl-4-(trifluoromethyl)-1H-imidazol-2-yl)benzyl)-2-(2-isopropylpyridin-3-yl)-7,9-dihydro-8H-purin-8-one] was over 7.30; that for `CC(C)c1ccccc1-c1ncc2c(n1)n(Cc1cccc(OCc3cncn3C)c1)c(=O)n2C` [Compound I-243, 2-(2-isopropylphenyl)-7-methyl-9-(3-((1-methyl-1H-imidazol-5-yl)methoxy)benzyl)-7,9-dihydro-8H-purin-8-one] was 5.70 to 6.70; that for `CC(C)c1ncccc1-c1ncc2[nH]c(=O)n(C3(c4ccc(-c5nc(C(F)(F)F)cn5C)cc4)CC3)c2n1` [Compound I-51, 2-(2-isopropylpyridin-3-yl)-9-(1-(4-(1-methyl-4-(trifluoromethyl)-1H-imidazol-2-yl)phenyl)cyclopropyl)-7,9-dihydro-8H-purin-8-one] was over 7.30. Regarding `CC(C)c1ccccc1-c1ncc2[nH]c(=O)n(Cc3ccc(C#N)cc3)c2n1` [Compound I-151, 4-((2-(2-isopropylphenyl)-8-oxo-7,8-dihydro-9H-purin-9-yl)methyl)benzonitrile], the pIC50 is 5.70 to 6.70.
